Earlier results, collected in PMC2742322 (Bioorganic & medicinal chemistry letters, 2008).

Target: μ-opioid receptor (Cavia porcellus, UniProt A0ACM8Q262)
Conditions: read-out: IC50^μ (GPI); functional bioactivity

Sequence of μ-opioid receptor (A0ACM8Q262 1-400): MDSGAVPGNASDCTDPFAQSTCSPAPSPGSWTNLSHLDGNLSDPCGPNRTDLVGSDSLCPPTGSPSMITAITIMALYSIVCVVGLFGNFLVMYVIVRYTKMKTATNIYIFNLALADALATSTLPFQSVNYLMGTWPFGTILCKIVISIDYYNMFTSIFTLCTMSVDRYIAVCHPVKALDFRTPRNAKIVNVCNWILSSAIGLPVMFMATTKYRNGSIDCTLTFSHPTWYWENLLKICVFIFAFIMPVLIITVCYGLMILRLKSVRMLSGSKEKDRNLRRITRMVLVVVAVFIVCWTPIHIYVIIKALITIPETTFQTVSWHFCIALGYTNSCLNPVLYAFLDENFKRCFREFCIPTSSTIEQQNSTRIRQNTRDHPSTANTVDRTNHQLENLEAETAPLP

Tyr^1-Pro^2-Trp^3-Phe^4-NH2 [EM-1]
IC50: 9.7 ± 2.21 nM
